# Columns and labels:
# [1] = test system: SW-982 synovial cell line; assay: Sulforhodamine B (SRB) assay, IC50 on SW-982 cells; format: cell-based; conditions: Homo sapiens, SW982, 48 h
# Protocol: (§1) The sulforhodamine B (SRB) assay^21 was used to determine the drug concentration that half of the cell growth/viability is inhibited (IC50). Cells were cultured in 96-well plates, with 5,000 cells in 100 μL of culture medium per well. The rest of the protocol was the same as described previously^22,23.
# (§2) Data shown in Table 1 are IC50 values of VR23 and other compounds, which were determined using sulforhodamine B (SRB) assays on immunologically relevant cells (THP-1, SW-982 and PBMC). […] Two well-known proteasome inhibitors, BTZ and CFZ, were included for comparison since VR23 is also a proteasome inhibitor, albeit targeting different subunits^2. The widely used anti-inflammatory DEX was included, also for comparison.
# (§3) THP-1, SW982 and PBMC cells (5,000 cells/well) were treated with each compound for 48 hours. The IC50, the drug concentration reducing cell growth/viability by 50%, was determined by a dose-response four-parameter curve (generated with GraphPad Prism V. 4.02) formed by 10 two-fold dilutions (n=3).
# THP-1 monocytic cells = assay: Sulforhodamine B (SRB) assay, IC50 on THP-1 cells; format: cell-based, human
# Protocol: as §1, §2, §3
# [2] = test system: CQ-resistant P. falciparum ItG; assay: Anti-parasitic assay (SYBR Green I), ItG strain; format: cell-based; conditions: Plasmodium falciparum, 48 h
# Protocol: (§4) The CQ-resistant P. falciparum ItG and the CQ-sensitive 3D7 strains were maintained and assays carried out as described previously^25. Briefly, P. falciparum strains were maintained in RPMI 1640 culture medium supplemented with 10% human serum, 25 mM HEPES, gentamicin, and 50 μM of hypoxanthine. The anti-parasitic assay was carried out as described previously^25. Briefly, a compound gradient was generated across a 96-well assay plate; a constant number of parasites added in 50 μL of the culture medium; allowed to grow for 48 hours; and followed by the measurement of DNA amounts (i.e., fluorescence) using SYBR Green I. The IC50 value is the 50% point between alive and dead for which a three-parameter fit was used.
# (§5) VR23 is a derivative of CQ; a well-known anti-malarial drug. […] ItG and […] P. falciparum strains are CQ-resistant and CQ-sensitive strains, respectively. IC50 values were calculated by S.E.M (Table 2).
# [3] = test system: CQ-sensitive P. falciparum 3D7; assay: Anti-parasitic assay (SYBR Green I), 3D7 strain; format: cell-based; conditions: Plasmodium falciparum, 3D7, 48 h
# Protocol: as §4, §5
# SW-982 cells = assay: CCK-8 cell viability, SW-982 cells; format: cell-based; conditions: SW-982, 6 hours with IL-1β 1 ng/mL; VR23 5 μM, HCQ 30 μM
# Protocol: Dunnett's test was performed to assess if there are significant differences in cell viability compared to the non-treatment control group. The values presented are mean±SEM (n=3).
# The CCK-8 assay was used to count viable cells under the various treatment conditions. Briefly, cells were cultured in 11 columns of a 96-well clustered plate, with 5,000 cells in 100 μL of culture medium per well, excluding one column for a media-only control. The plate was incubated overnight at 37° C. in the humidified conditions, followed by treatment with test compounds diluted in the culture medium (10 μL). Each column was treated with a different condition so that each treatment could have 8 repeats. […] The absorbance was measured using an automatic plate reader (Synergy H4 Hybrid Multi-Mode Microplate Reader, BioTek, Montreal, Canada) at 450 nm wavelength. The cell viability of each treatment sample was determined by using the following equation (%)=(Abstrtmt-Absmedia)/(AbsuT-Absmedia)*100, where Abstrtmt is the absorbance value of cells with the various treatment conditions; Absmedia is the absorbance of the well containing media only; AbsuT is the absorbance of the wells with untreated cells. […]
# [4] = test system: IL-6 secretion in HFLS-RA cells; assay: IL-6 secretion in stimulated HFLS-RA cells (ELISA); format: cell-based, human; conditions: 6 hours
# Protocol: The mean±SEM (n=3) values were determined by a Dunnett's test.
# The values presented are the mean±SEM (n=2).
# The enzyme-linked immunosorbent assay (ELISA) is a quantitative measurement based on sandwich-based enzyme linking, using a protein-specific capture antibody to determine the levels of single or multiple chemokines and cytokines.
# This finding was extended to human cells relevant to autoimmune diseases. Human fibroblast-like synoviocytes (HFLS) are present in the synovial fluid of joint capsules and produce harmful molecules that contribute to joint destruction and the exacerbation of the disease in rheumatoid arthritis patients. […] The cells were then stimulated with IL-1β (FIG. 16) or LPS (FIG. 17), in the absence (control; IL-1β only) or presence of VR23 or HCQ. HCQ was included for comparison because it is often used to treat rheumatoid arthritis. […] For “VR23 only” samples, 5 μM VR23 was used. Fifty thousand HFLS cells per mL were used for the experiment. Cytokine levels in cell culture supernatants were determined by a single-analyte ELISA. […] Fifty thousand HFLS cells per mL were used for the experiment. The cytokine secretion was measured in cell culture supernatants by a single-analyte ELISA.
# mouse organs / tumor = conditions: cited from earlier work
structure (smiles),measurement,setting,value
"O=[N+]([O-])c1ccc(S(=O)(=O)N2CCN(c3ccnc4cc(Cl)ccc34)CC2)c([N+](=O)[O-])c1 [VR23, 7-chloro-4-(4-(2,4-dinitrophenylsulfonyl)piperazin-1-yl)quinoline]",IC50,[1],4.33 ± 0.7 µM
same,IC50,THP-1 monocytic cells; 48 hours,2.58 ± 0.5 µM
same,IC50,"THP-1 monocytic cells; Homo sapiens, THP-1, 48 h",3 µM
same,IC50,[2],0.117 µM
same,IC50,[3],0.416 µM
same,cell viability (CCK-8),SW-982 cells,did not significantly differ from the untreated cells
same,"IL-6 secretion, dose dependence","[4]; HFLS-RA, IL-1β 10 ng/mL, VR23 2.5-10 μM, HCQ 15 or 30 μM",decreases in a dose dependent manner
same,secretion of IL-6,"[4]; HFLS-RA, LPS 100 ng/mL, 5 or 10 μM",decreased substantially
same,"level of IL-6 secretion, HFLS-RA versus HFLS-N","[4]; IL-1β 10 ng/mL, VR23 5 μM",reduces the level of IL-6 secretion more effectively on HFLS-RA than HFLS-N
same,"IL-6 reduction, 5 μM VR23 versus 30 μM HCQ","[4]; synovial cells from rheumatoid arthritis patients, IL-1β or LPS",significantly more effective
same,anti-tumor activity,mouse organs / tumor; animal-based studies,strong anti-tumor activity
same,toxicity to mouse organs,mouse organs / tumor; animal-based studies,without any notable toxic side effects to mouse organs
same,toxic side effects of paclitaxel in combination,mouse organs / tumor; used in combination with paclitaxel (Tax),reduces toxic side effects caused by paclitaxel

# Source: patent publication US11357774B2, “Use of a quinoline sulfonyl compound for treatment of inflammation, inflammatory disorders, autoimmune disorders and malaria” (priority 2019, dated 2022)
